# Laboratory results as given in US20070010543A1, “Compositions and methods for treating gastrointestinal hypomotility and associated disorders” (Dynogen Pharmaceuticals, Inc., priority 2005, published 2007).
# Values joined by “and” are separate entries in the source; they are usually repeats but may differ in a detail not shown here. Equal values may be shown once.
# Tested on: guinea-pig distal colon
# Assay: Fecal pellet propulsion velocity assay, guinea pig ex vivo colon preparation
Structure (SMILES),"effect on morphine-induced decrease in motility (in words, summary of Table II)","Motility % control (Morphine 0.10 μM in bath, single preparations)","effect on motility (in words, summary of Table II)"
"O=C(N[C@H]1CN2CCC1CC2)c1c[nH]c2ccsc2c1=O [DDP733, (R)-N-1-azabicyclo[2.2.2]oct-3-yl-4,7-dihydro-7-oxothieno[3,2-b]pyridine-6-carboxamide]",diminished,,
CN1CC[C@]23c4c5ccc(O)c4O[C@H]2[C@@H](O)C=C[C@H]3[C@H]1C5 [Morphine],,72 % control and 57 % control and 73 % control and 78 % control,decrease in motility
